Data from article PMC9254247, “Dual-sensitive antibacterial peptide nanoparticles prevent dental caries” (Theranostics, 2022).
In brackets after ≈: the same amount, converted by molar mass. Like-named read-outs stand apart in the source and are kept apart here. No end group written: not given here.

Tests used:
[1] = tested on: human gingival fibroblast (HGF-1); test: Cytotoxicity, CCK-8 assay; assay type: cell-based; conditions: HGF1
Description: Figure S12. H&E staining of gingival, palatal and gastric tissues(Scale bar: 100
Supplementary Fig.13. The toxicity of pHly -1 NPs to human gingival fibroblast
(HGF-1) was assessment by CCK-8 assay. DMEM medium(10 % FBS) was used
for cell culture and DMEM m edium was used for drug preparation in toxicity tests.
The All of the data are represented as average±SD. Each experiment consists of 3 […]

[2] = tested on: clinically isolated S.mutans strains; test: MIC against clinically isolated S. mutans strains; assay type: cell-based; conditions: Streptococcus mutans
Description: Peptide and different pH of culture medium prepared. The pH of BHI medium […]
was adjusted by HCl and NaOH. […]
Isolation and culture of clinical S.mutans strains. Ethical approval of the study and the written consent/permission forms were obtained from Institutional Review Board (IRB) at Hunan Normal University prior to the study. For each child, written permission form was reviewed and signed by their legal guardians. Plaque -biofilm samples were collected from patients, including 16 Middle-aged and young patients and 4 children (age between 48 and 72 months) diagnosed with severe early childhood caries (S-ECC) in Changsha Stomatological Hospital. After being collected using a sterilized periodontal scaler, pooled plaque samples were transferred into 1 mL thiolglycollate solution, covered with 0.5 mL sterile paraffin wax and immediately transported to the laboratory for isolation. In order to sufficient disperse the aggregates, samples should be gently vortexed and sonicated before isolation. A series of diluted dispersed samples were plated on TYCSB at 37 °C under anaerobic conditions. Then, the suspicious clones were selected and plated on the mitis salivarius agar (MSA) plus bacitracin at 37 °C under anaerobic conditions for further isolation. The isolated S.mutans were most of identified by mass spectrometry and all identified by microbiochemical reaction again. All isolated S.mutans were stored with glycerol for subsequent experiments.
Minimal inhibition concentration (MIC) determination . S.mutans UA159 (ATCC 700610) and 20 clinical S.mutans strains were used. S.mutans UA159 was purchased from Shanghai Biofeng Biotechnology Co., LTD. These bacteria grown in brain heart infusion broth (BHI, Beijing Land Bridge, China) at 37 °C under anaerobic conditions.
Due to bacteria incubation under the condition of excessive acid for a long time will affect its vitality, therefore, pH 5.5 was choose as acidic condition for the MIC determination. Peptides and CHX were dissolved in BHI medium of different pHs (pH 5.5 and 7.0) using serial dilutions to obtain different diluted solutions. 2 µL of bacteria (1×10^7 CFU (colony forming units) in the logarithmic phase were added into each well of 96-well plates containing 200 µL different diluted solutions. Note that […]
the aggregate behavior of peptides. In order to avoid interfering with the MIC test, it is important to set up the control wells which only contain different concentrations of peptides in BHI medium of different pHs. The absorbance at 600 nm was detected with a microplate reader (Multiskan Spectrum, BioTek Inc., USA) after 48 h. The inhibition rate of drugs on bacteria was calculated based on the absorbance […]
The SYTO 9 / PI double staining and scanning electron microscopy (SEM) were also performed to evaluate the bacterial killing and bacterial membrane disruption.
For SYTO 9/PI double staining, pHly -1 NPs was added to actively growing S. mutans UA159 (10^6 CFU/m L) at the concentration of 22 μM at pH 4.5 or pH 7.0, after 1 h incubation, the bacteria treated were imaged by using LIVE/DEAD BacLight Bacterial Viability Kit (Thermo Fisher Scientific). SYTO 9 and PI were added according to the manufacturer ’s protocol and used for labeling […]
bacteria. […]
For SEM, S. mutans UA159 was treated by the same way to SYTO 9/PI double staining asay and then harvested, washed, and then fixed in 2.5 % glutaraldehyde for 3 h. After dehydration by serial concentrations of ethanol solutions (10%, 25%, 50%, 75%, 95%, and 100%) and lyophiliz ation overnight, the lyophilized samples were coated with goldand then photographed by SEM.

fresh mice erythrocytes = assay type: cell-based, mouse; conditions: 30 min, PBS pH 7.4
Description: Peptide and different pH of culture medium prepared. The pH of BHI medium was adjusted by HCl and NaOH. All peptides, including lycosin- I, pHly-1, s-pHly-1 were synthesized on a Rink amide-AM resin using the SPPS
(9- fluorenyl-methoxycarbonyl solid-phase peptide synthesis) method as reported previously1. Then peptides were cleaved from the resin using TFA/1,2- ethanedithiol/thioanisole/anisole (90/5/3/2 (v/v)), precipitated in cold diethyl ether and the collected precipitate was dried by air -drying . The prepared peptides were purified by reverse phase- HPLC (RP-HPLC) and their molecular weights were determined by MALDI-TOF MS.
Hemolytic assay. Approximately 4 % (in volume) of the mouse erythrocyte s were prepared by diluting fresh erythrocytes to 25-fold dilution with PBS buffer (pH 7.4).
The stock peptide solution ([…]) diluted by PBS solution to reach various concentrations (200 μL) was placed in a 1.5 mL sterile microfuge tube, followed by the addition of 200 μ L o f erythrocyte suspension. The mixture was incubated at 37 °C for 30 min. Then, the mixture was centrifuged at 3,500 rpm for 5 min to collect the supernatant. Aliquots (100 μL) of the supernatant were removed to 96-well plates, and the absorbance was detected at 450 nm using a microplate reader (Multiskan Spectrum, BioTek Inc., USA). Untreated erythrocyte suspension in an equal volume of PBS solution and 0.1% Triton X-100 were used as the negative control and positive […]
Isolation and culture of clinical S.mutans strains. Ethical approval of the study and the written consent/permission forms were obtained from Institutional Review Board (IRB) at Hunan Normal University prior to the study. For each child, written permission form was reviewed and signed by their legal guardians. Plaque -biofilm samples were collected from patients, including 16 Middle-aged and young patients and 4 children (age between 48 and 72 months) diagnosed with severe early childhood caries (S-ECC) in Changsha Stomatological Hospital. […]

[H]/N=C(\N/C(=N/[H])NCCCCCCNC(=N)NC(=N)Nc1ccc(Cl)cc1)Nc1ccc(Cl)cc1 [CHX, chlorhexidine]
IC50 [1]: 4.9 µM
MIC ([2]; pH 5.5, pH 5.5, range over 20 clinical strains, read-out: MIC values against 20 bacterial strains): 0.5 to 2 µM (≈ 0.253 to 1.01 µg/mL)
MIC ([2]; pH 5.5, strain CS-1, pH 5.5, 5 repetitions, read-out: MIC): 1 µM (≈ 0.505 µg/mL)
MIC ([2]; pH 5.5, strain CS-2, pH 5.5, 5 repetitions, read-out: MIC): 0.5 µM (≈ 0.253 µg/mL)
MIC ([2]; pH 5.5, strain CS-3, pH 5.5, 5 repetitions, read-out: MIC): 1 µM (≈ 0.505 µg/mL)
MIC ([2]; pH 5.5, strain CS-4, pH 5.5, 5 repetitions, read-out: MIC): 1 µM (≈ 0.505 µg/mL)
MIC ([2]; pH 5.5, strain CS-5, pH 5.5, 5 repetitions, read-out: MIC): 2 µM (≈ 1.01 µg/mL)
MIC ([2]; pH 5.5, strain CS-6, pH 5.5, 5 repetitions, read-out: MIC): 1 µM (≈ 0.505 µg/mL)
MIC ([2]; pH 5.5, strain CS-7, pH 5.5, 5 repetitions, read-out: MIC): 1 µM (≈ 0.505 µg/mL)
MIC ([2]; pH 5.5, strain CS-8, pH 5.5, 5 repetitions, read-out: MIC): 2 µM (≈ 1.01 µg/mL)
MIC ([2]; pH 5.5, strain CS-9, pH 5.5, 5 repetitions, read-out: MIC): 2 µM (≈ 1.01 µg/mL)
MIC ([2]; pH 5.5, strain CS-10, pH 5.5, 5 repetitions, read-out: MIC): 1 µM (≈ 0.505 µg/mL)
MIC ([2]; pH 5.5, strain CS-11, pH 5.5, 5 repetitions, read-out: MIC): 1 µM (≈ 0.505 µg/mL)
MIC ([2]; pH 5.5, strain CS-12, pH 5.5, 5 repetitions, read-out: MIC): 0.5 µM (≈ 0.253 µg/mL)
MIC ([2]; pH 5.5, strain CS-13, pH 5.5, 5 repetitions, read-out: MIC): 1 µM (≈ 0.505 µg/mL)
MIC ([2]; pH 5.5, strain CS-14, pH 5.5, 5 repetitions, read-out: MIC): 1 µM (≈ 0.505 µg/mL)
MIC ([2]; pH 5.5, strain CS-15, pH 5.5, 5 repetitions, read-out: MIC): 2 µM (≈ 1.01 µg/mL)
MIC ([2]; pH 5.5, strain CS-16, pH 5.5, 5 repetitions, read-out: MIC): 1 µM (≈ 0.505 µg/mL)
MIC ([2]; pH 5.5, strain CS-17 (S-ECC child), pH 5.5, 5 repetitions, read-out: MIC): 1 µM (≈ 0.505 µg/mL)
MIC ([2]; pH 5.5, strain CS-18 (S-ECC child), pH 5.5, 5 repetitions, read-out: MIC): 2 µM (≈ 1.01 µg/mL)
MIC ([2]; pH 5.5, strain CS-19 (S-ECC child), pH 5.5, 5 repetitions, read-out: MIC): 2 µM (≈ 1.01 µg/mL)
MIC ([2]; pH 5.5, strain CS-20 (S-ECC child), pH 5.5, 5 repetitions, read-out: MIC): 2 µM (≈ 1.01 µg/mL)

KIWFHAMHIIAHFIAHQHLHQHL-NH2 [pHly-1 NPs]
hemolysis (fresh mice erythrocytes; 500 μM): about 20%
HC50 (fresh mice erythrocytes; 37 °C): > 500 µM
